In patent US12275731B2, “Azaindole inhibitors of wild-type and mutant forms of LRRK2” (DANA-FARBER CANCER INSTITUTE, INC., priority 2018, dated 2025):

How the values were obtained:
Assay in all cases: KinomeScan profiling
Assay type in all cases: binding
[1] = molecular target: T1, MEK6 (Homo sapiens, UniProt P52564); conditions: MEK6, 1 μM; read-out: % control
T1 sequence (P52564 1-334): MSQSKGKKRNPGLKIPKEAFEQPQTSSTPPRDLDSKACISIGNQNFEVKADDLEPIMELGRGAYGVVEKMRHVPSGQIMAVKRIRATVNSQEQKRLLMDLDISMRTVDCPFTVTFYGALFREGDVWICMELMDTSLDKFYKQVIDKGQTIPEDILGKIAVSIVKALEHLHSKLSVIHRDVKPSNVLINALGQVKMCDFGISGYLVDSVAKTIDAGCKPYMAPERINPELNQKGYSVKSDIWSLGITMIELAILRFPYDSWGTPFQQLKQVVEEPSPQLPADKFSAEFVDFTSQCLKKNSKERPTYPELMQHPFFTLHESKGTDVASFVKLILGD
In short: (§1)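 Percent-of-control values derive from RLU, calculated as (test − positive)/(negative − positive) × 100, where DMSO defines 100% and a positive control compound defines 0%. Each compound was tested at 1 μM in the 468-kinase panel; sub-35% readings indicate activity.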

[2] = molecular target: T2, PRKD1 (Homo sapiens, UniProt Q15139); conditions: PRKD1, 1 μM; read-out: % control
T2 sequence (Q15139 1-912): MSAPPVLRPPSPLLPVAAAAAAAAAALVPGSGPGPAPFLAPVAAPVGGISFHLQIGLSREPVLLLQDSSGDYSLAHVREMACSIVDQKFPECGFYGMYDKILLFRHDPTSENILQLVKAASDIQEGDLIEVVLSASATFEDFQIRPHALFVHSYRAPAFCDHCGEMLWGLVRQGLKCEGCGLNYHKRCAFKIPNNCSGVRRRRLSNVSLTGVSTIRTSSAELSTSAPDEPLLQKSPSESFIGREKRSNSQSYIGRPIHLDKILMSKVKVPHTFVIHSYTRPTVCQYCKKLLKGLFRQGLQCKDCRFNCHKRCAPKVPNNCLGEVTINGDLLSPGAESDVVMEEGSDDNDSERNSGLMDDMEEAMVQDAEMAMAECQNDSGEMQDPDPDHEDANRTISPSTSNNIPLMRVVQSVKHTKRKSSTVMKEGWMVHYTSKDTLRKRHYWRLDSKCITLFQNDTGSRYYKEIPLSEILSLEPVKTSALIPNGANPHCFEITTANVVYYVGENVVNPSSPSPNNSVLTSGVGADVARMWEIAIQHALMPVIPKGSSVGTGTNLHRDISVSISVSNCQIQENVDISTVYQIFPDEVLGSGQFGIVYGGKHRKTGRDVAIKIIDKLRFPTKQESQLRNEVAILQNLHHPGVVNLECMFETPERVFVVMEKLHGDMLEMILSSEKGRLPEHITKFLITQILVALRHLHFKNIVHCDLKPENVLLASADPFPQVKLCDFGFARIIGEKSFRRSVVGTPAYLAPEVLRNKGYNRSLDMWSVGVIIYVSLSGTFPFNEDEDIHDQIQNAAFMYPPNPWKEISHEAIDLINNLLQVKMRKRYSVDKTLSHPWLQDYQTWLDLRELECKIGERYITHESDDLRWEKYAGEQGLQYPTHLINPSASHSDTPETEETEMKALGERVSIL
In short: as §1

[3] = molecular target: T3, BRAF (Homo sapiens, UniProt P15056); conditions: read-out: % control
T3 construct: purchased KinomeScan®
T3 sequence (P15056 whole entry): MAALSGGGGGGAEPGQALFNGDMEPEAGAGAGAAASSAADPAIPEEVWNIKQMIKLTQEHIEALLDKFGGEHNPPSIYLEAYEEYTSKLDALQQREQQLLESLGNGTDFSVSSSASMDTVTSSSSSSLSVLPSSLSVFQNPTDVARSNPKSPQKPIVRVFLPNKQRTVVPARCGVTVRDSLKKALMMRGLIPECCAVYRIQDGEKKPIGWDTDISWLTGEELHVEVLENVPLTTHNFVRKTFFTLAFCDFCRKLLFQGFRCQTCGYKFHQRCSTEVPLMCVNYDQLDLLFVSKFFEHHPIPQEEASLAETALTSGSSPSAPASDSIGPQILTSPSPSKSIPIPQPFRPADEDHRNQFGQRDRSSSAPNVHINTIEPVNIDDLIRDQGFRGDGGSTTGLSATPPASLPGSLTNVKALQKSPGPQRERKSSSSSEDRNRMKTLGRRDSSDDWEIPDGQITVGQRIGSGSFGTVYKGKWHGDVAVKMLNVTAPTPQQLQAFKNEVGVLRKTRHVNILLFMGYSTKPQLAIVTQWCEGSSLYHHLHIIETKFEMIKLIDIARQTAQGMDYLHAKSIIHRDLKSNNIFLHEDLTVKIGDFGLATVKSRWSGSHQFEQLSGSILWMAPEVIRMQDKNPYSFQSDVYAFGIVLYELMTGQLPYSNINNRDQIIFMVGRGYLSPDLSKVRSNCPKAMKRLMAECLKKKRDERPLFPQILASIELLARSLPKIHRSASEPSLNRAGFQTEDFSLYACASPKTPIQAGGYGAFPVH
In short: as §1

[4] = molecular target: T4, MLCK (Homo sapiens, UniProt Q32MK0); conditions: read-out: % control
T4 sequence (Q32MK0 1-819): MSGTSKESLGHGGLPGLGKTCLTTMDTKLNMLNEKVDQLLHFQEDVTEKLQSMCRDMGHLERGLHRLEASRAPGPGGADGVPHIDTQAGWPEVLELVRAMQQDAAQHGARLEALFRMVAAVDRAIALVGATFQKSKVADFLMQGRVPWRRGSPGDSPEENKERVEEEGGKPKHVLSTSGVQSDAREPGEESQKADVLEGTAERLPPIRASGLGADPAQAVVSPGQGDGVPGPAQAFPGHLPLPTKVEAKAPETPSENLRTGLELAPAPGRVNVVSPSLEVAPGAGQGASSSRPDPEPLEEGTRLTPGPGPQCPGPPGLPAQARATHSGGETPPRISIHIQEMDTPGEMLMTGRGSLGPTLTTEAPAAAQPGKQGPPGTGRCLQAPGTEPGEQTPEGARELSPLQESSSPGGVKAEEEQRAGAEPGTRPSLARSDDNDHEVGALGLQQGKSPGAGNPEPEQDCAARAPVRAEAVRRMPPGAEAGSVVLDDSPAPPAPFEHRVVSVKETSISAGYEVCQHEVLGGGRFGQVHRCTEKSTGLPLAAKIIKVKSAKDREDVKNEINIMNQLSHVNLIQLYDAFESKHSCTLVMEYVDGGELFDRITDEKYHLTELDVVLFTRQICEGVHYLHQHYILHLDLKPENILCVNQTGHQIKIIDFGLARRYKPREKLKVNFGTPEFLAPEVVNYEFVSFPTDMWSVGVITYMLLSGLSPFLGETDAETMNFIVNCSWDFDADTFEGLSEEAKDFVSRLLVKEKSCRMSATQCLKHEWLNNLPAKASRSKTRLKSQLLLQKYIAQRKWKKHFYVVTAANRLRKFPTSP
In short: as §1

| Structure (SMILES) | remaining binding at 1 µM [1] [%] | remaining binding at 1 µM [2] [%] | remaining binding at 1 µM [3] [%] | remaining binding at 1 µM [4] [%] |
| --- | --- | --- | --- | --- |
| CNc1c(-c2ccc(C(=O)N3CCC(N4CCOCC4)CC3)cc2)cnc2[nH]cc(Cl)c12 [Compound 96, (4-(3-chloro-4-(methylamino)-1H-pyrrolo[2,3-b]pyridin-5-yl)phenyl)(4-morpholinopiperidin-1-yl)methanone] | 16 | 19 | 90 | 5 |
| O=C(c1ccc(-c2cnc3[nH]cc(Cl)c3c2NC2CCCC2)cc1)N1CCC(N2CCOCC2)CC1 [Compound 101, (4-(3-chloro-4-(cyclopentylamino)-1H-pyrrolo[2,3-b]pyridin-5-yl)phenyl)(4-morpholinopiperidin-1-yl)methanone] | 95 | 48 | 84 | 100 |
| CNc1c(-c2cnn([C@H]3CCN(C(C)=O)C[C@@H]3F)c2)cnc2[nH]cc(Cl)c12 [Compound 77, 1-((3S,4S)-4-(4-(3-chloro-4-(methylamino)-1H-pyrrolo[2,3-b]pyridin-5-yl)-1H-pyrazol-1-yl)-3-fluoropiperidin-1-yl)ethan-1-one] | 60 | 58 | 91 | 13 |
